The values below come from ChEMBL document CHEMBL1201862, “PubChem BioAssay data set” (2004).

The source made the active and inactive calls. Where only a bound is given, the exact number is not on record here.

One assay deals with H9c2. Put plainly: cells. It is filed as functional, cell-based. As to conditions: Rattus norvegicus, H9c2, Myocardium.
Assay [1] in a line: NIH-3T3 fibroblast cytotoxicity, dose response, cytotoxicity control, cell-based, fluorescence, Alamar Blue, secondary assay (AID 2327).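 Further: NIH-3T3 mouse fibroblasts cultured with fluconazole at 8 µg/mL.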 Type of assay: functional. (In general: The colour change of resazurin is a common sign of viable cells or microbes.)
Assay [2] is described as follows: C. albicans growth with fluconazole, confirmation, fluorescence, retest (AID 2467). Type of assay: functional, cell-based.
The target in assay [3] is T1, Calpain-2 catalytic subunit (Sus scrofa, UniProt P43367).
T1 sequence (P43367 whole entry): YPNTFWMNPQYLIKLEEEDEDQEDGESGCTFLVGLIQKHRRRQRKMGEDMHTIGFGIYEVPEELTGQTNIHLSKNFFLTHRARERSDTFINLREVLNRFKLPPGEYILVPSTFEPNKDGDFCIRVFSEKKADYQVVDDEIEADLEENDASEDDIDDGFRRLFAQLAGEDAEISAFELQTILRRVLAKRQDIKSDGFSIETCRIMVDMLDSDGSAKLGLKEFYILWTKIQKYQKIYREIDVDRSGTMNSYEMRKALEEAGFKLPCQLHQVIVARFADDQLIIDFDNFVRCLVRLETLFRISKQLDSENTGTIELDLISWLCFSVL
Put plainly: pig calpain II inhibitor potency, dose response, biochemical, fluorogenic peptide substrate (AID 1420). Type of assay: functional.

A further assay addresses Cytochrome P450 2C19 (Homo sapiens, UniProt P33261). The assay is described as follows: Cytochrome panel assay with activity outcomes. Panel member name: p450-cyp2c19 Compounds with AC50 equal or less than 10 uM are considered active. Particulars: read-out: AC50. It is filed as functional.
The next assay addresses T2, Cytochrome P450 1A2 (Homo sapiens, UniProt P05177).
T2 sequence (P05177 whole entry): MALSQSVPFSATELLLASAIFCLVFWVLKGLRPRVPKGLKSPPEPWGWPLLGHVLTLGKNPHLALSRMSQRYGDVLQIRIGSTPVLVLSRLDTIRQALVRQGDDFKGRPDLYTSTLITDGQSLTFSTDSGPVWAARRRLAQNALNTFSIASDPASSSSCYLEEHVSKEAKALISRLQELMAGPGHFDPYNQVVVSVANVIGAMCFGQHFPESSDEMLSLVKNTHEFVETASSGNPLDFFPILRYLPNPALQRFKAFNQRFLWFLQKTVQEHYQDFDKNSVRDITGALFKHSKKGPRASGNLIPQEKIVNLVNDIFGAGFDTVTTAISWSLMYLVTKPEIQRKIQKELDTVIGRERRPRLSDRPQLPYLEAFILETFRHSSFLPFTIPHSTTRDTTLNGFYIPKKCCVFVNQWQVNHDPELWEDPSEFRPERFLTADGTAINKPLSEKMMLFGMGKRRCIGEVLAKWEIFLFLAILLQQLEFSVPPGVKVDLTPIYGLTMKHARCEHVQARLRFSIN

A further assay deals with Paired box protein Pax-8 (Homo sapiens, UniProt Q06710). The assay is described as follows: inhibitors of PAX8-driven TPO luciferase reporter, dose response, RMG-I cells, cherry-pick (AID 687027).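 Further: luciferase reporter driven by Pax8 target thyroperoxidase promoter measured by SteadyGlo luminescence.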 Type of assay: functional, cell-based.
The target in a further assay is Large T antigen (Simian virus 40, UniProt P03070). Type of assay: functional, Betapolyomavirus macacae.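 Further: Confirmatory-stage PubChem screen for compounds that inhibit SV40 T antigen.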
Assay [4] can be described thus: Luminescence Cell-Based Dose Response HTS to Identify Activators of Luciferase Translation or Activity in H4 […] Cells. [Related pubchem assays: 1829 (Project Summary), 1814 (Primary HTS)]. It is filed as functional.
A further assay relates to H4. Put plainly: Luminescence Cell-Based Dose Response HTS to Identify Activators of 5'UTR Stem-Loop Driven Prion Protein mRNA Translation in H4 Neuroglioblastoma Cells. [Related pubchem assays: 1829 (Project Summary), 1814 (Primary HTS)]. It is filed as functional. As to conditions: Homo sapiens.
Assay [5] concerns the target T3, Replicative DNA helicase DnaB (Mycobacterium tuberculosis, UniProt P9WMR3).
T3 sequence (P9WMR3 whole entry): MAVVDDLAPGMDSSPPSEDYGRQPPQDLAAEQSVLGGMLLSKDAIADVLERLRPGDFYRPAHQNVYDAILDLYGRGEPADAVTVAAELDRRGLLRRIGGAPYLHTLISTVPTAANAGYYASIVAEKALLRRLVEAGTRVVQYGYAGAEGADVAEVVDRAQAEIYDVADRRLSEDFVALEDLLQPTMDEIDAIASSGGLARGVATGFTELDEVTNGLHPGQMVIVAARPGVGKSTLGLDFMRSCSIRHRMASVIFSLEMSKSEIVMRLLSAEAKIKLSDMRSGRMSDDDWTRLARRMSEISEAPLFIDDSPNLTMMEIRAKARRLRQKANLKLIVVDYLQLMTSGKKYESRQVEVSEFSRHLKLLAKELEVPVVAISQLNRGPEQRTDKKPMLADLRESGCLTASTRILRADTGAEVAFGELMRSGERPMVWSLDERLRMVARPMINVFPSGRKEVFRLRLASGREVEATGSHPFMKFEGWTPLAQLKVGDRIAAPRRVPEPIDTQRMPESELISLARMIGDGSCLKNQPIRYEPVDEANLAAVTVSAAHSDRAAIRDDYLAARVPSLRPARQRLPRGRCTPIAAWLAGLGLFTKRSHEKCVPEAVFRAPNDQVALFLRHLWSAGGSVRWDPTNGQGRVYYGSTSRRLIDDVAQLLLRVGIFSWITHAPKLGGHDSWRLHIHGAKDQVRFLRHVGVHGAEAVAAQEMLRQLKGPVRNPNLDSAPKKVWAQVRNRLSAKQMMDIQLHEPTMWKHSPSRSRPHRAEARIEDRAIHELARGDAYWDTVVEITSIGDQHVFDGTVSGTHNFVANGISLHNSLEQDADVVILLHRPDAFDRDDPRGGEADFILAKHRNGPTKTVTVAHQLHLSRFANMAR
The assay is described as follows: DnaB intein splicing inhibitors, dose response, biochemical, cell-free fluorescence (AID 449749). It is filed as functional.

Another assay has as its target T4, Protein RecA (Mycobacterium tuberculosis, UniProt P9WHJ3).
T4 sequence (P9WHJ3 whole entry): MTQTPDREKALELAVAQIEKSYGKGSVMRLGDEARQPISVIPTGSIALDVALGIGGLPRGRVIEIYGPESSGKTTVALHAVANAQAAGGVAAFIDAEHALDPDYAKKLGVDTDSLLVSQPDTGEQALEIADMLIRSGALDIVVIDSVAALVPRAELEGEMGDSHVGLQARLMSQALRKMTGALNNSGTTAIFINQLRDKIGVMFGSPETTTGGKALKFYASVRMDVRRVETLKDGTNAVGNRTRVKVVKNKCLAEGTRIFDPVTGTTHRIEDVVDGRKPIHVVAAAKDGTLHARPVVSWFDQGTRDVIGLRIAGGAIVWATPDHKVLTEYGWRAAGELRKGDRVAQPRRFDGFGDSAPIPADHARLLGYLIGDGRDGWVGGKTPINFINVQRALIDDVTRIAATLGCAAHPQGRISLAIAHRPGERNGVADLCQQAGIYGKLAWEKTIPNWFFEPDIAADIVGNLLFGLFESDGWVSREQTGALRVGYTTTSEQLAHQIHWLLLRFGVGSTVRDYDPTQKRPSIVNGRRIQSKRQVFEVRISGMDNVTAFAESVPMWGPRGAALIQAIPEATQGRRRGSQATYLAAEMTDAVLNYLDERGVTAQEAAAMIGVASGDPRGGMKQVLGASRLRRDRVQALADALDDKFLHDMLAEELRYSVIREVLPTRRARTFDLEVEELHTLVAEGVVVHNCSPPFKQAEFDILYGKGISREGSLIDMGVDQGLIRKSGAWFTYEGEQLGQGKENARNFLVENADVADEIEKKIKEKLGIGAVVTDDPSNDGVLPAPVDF
Put plainly: Fluorescence Cell-Free Homogeneous Dose Retest to Identify Inhibitors of RecA-Intein Splicing Activity. [Related pubchem assays (depositor defined):AID2097, AID2223, AID489010, AID492950]. It is filed as functional.

Sequence of Large T antigen (P03070 whole entry): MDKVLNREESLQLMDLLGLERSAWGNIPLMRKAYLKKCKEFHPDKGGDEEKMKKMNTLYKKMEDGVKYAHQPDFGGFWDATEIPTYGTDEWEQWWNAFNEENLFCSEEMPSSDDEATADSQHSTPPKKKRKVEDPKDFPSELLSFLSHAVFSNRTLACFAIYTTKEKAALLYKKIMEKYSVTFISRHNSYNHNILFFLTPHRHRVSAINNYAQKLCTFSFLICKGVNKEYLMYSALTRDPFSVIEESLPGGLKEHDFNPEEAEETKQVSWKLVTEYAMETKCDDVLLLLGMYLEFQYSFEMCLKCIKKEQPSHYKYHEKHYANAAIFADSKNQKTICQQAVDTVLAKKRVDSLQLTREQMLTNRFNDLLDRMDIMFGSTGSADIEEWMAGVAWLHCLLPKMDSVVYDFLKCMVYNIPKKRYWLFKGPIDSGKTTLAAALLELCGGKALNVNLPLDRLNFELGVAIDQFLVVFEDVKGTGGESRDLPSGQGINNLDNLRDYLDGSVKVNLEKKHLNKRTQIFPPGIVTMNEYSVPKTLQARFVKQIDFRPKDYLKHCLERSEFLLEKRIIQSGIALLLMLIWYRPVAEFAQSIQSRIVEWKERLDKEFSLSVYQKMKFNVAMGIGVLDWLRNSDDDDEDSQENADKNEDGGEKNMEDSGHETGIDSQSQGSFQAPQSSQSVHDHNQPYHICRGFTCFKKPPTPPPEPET
Sequence of Paired box protein Pax-8 (Q06710 whole entry): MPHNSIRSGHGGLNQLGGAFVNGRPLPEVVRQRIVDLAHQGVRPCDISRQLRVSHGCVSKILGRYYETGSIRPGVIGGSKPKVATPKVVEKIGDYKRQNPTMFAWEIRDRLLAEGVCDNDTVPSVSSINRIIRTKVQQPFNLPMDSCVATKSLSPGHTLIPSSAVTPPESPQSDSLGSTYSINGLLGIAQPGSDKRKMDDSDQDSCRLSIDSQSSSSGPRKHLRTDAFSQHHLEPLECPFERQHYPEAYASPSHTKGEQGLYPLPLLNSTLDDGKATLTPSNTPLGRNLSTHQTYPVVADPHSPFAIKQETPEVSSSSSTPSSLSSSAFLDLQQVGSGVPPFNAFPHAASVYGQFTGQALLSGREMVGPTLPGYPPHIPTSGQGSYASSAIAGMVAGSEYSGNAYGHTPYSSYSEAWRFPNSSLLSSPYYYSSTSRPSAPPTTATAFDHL
Sequence of Cytochrome P450 2C19 (P33261 whole entry): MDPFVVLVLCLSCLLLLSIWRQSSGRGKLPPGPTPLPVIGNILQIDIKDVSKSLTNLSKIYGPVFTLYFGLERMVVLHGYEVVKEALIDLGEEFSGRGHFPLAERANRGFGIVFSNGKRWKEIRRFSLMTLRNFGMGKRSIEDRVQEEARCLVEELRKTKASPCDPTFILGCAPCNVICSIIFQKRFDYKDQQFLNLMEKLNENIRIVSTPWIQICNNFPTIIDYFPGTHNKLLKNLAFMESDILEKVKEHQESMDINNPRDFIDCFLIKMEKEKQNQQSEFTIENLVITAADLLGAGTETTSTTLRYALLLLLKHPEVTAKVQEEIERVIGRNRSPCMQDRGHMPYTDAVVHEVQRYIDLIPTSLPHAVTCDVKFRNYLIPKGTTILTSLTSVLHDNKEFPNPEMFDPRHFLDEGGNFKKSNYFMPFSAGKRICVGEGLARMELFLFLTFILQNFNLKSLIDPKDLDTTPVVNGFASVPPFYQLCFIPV

For `Cc1ccc(NC(=O)c2cc(=O)c3ccccc3o2)cc1S(=O)(=O)N1CCOCC1`, the IC50 (as a rule, the concentration needed to halve the response being measured) in the assay with H9c2 is > 79 µM (inactive).

On to `CCCc1cc(O)nc(SCC(=O)Nc2ccc(Br)cc2Br)n1`, for which the EC50 – broadly, the concentration giving half of the maximal effect – in [1] was 84.5 µM (active); in assay [2], 1.38 µM (active).

For `O=C(Cc1cn(Cc2cccc(Cl)c2)c2ccccc12)N1CCCC1`, the 50% inhibitory concentration (IC50) in assay [3] is recorded as 17.1 µM (not active).

Consider `CN(C(=O)c1sc2nc(N3CCOCC3)c3c(c2c1N)CCCC3)c1ccccc1`, for which the IC50 in the assay on H9c2 is > 79 µM (inactive).

Turning to `O=C1c2ccccc2C(=O)N1CCCC(=O)N1CCCc2ccccc21`, in [3], the IC50 is reported as > 50 µM (not active).

For the compound `Cc1nn(-c2ccccc2)nc1C(=O)Nc1cccc(C(=O)NC2CC2)c1`, the IC50 in the assay with H9c2 is > 79 µM (inactive).

Turning to `COc1ccc(/C=N/NC(=O)c2sccc2OCc2ccc(F)cc2)cc1OC`, the AC50 (commonly the midpoint of the concentration-response curve, whichever way the signal moves) at Cytochrome P450 2C19 is 17.8 µM (inconclusive); on Cytochrome P450 1A2 it was 14.1 µM (inconclusive). Also, the IC50 with H9c2 was > 79 µM (inactive).

For `O=C(Cn1cnc2c(nnn2Cc2ccc(F)cc2)c1=O)NC1CCCC1`, the EC50 in assay [1] is > 150 µM (inactive); in assay [2], > 38 µM (not active).

Regarding `Cc1ccc(S(=O)(=O)/N=C(/c2ccccc2)N2CCOCC2)c(C)c1`, the concentration for a half-maximal effect (EC50) in [1] is > 160 µM (inconclusive); in [2], > 38 µM (not active).

For the compound `O=C(CCCN1C(=O)/C(=C/c2cccc(Br)c2)SC1=S)Nc1ccccn1`, at Paired box protein Pax-8, the AC50 is 5.71 µM (active).

For the compound `Cn1c2c(c(=O)n(C)c1=O)C(c1ccc(Br)cc1)Nc1ccccc1O2` (stereo unspecified), the IC50 in the assay on H9c2 was 25.7 µM (active).

Regarding `C=CCn1c(SCc2nc(O)c3ccccc3n2)nnc1-c1cc2cc(Cl)ccc2o1`, the EC50 was > 150 µM (inactive) in assay [1] and 0.052 µM (active) in assay [2].

In the case of `Cc1cccc(Oc2cc(N)cc([N+](=O)[O-])c2)c1`, the half-inhibitory concentration (IC50) in assay [3] was > 50 µM (not active).

On to `CCCCCCCCNC(=O)c1ccc(C)cc1`, for which the half-maximal inhibitory concentration (IC50) in assay [3] is 10.1 µM (not active).

`C(=N\Nc1nc2ccccc2[nH]1)/c1cccs1`: the IC50 at Large T antigen is 16.9 µM (active).

Consider `Cc1cc(NC(=O)CCN2C(=O)/C(=C/c3ccccc3Cl)SC2=S)no1`, for which the IC50 in [3] was > 50 µM (not active).

Take `COCCNC(=S)N/N=C(\C)c1ccc(O)cc1`: the IC50 at Large T antigen was 10.8 µM (active).

As to `COc1ccc(C2CCCCCN2C(=O)C2CCN(S(=O)(=O)c3cccc(C(C)=O)c3)CC2)cc1` (stereo unspecified), in the assay with H9c2, the IC50 is > 79 µM (inactive).

With `O=C(CCNC(=O)c1ccc(Br)cc1)Nc1nccs1`, the EC50 in [1] is 23.9 µM (inconclusive); in assay [2] it was > 38 µM (not active).

Consider `CO[C@H]1CN(C)C(=O)c2cc(NC(=O)c3nc4ccccc4s3)ccc2OC[C@H](C)N(Cc2cccnc2)C[C@H]1C`, for which the AC50 at Paired box protein Pax-8 was 18.8 µM (active).

For the compound `Cc1ccc(-n2c(S)nnc2Cc2ccccc2)c(C)c1`, the figures for the EC50 in assay [1] and in assay [2] were > 150 µM (inactive) and 2.71 µM (active), respectively.

For `Nc1cc(Oc2cccnc2)cc([N+](=O)[O-])c1`, the half-inhibitory concentration (IC50) in assay [3] is given as > 50 µM (not active).

Regarding `O=C(NC1CCCCC1)C1c2ccccc2C(=O)N1Cc1ccc2c(c1)OCO2` (stereo unspecified), in assay [3], the IC50 is 20.2 µM (not active).

Turning to `COc1cc(CN2C[C@@H](CO)O[C@@H](n3cnc4c(Nc5ccccc5)ncnc43)C2)cc(OC)c1OC`, the half-maximal inhibitory concentration (IC50) in the assay on H9c2 was 9.14 µM (active).

As to `CC(C)(C)c1ccc(CNc2ccc([N+](=O)[O-])cn2)cc1`, the IC50 in assay [3] is 5.15 µM (active).

Regarding `CCCn1c(=O)c2[nH]c(-c3ccc(OCC(=O)Nc4ccc(C#N)cc4)cc3)nc2n(CCC)c1=O`, in the assay on H9c2, the IC50 is > 79 µM (inactive). At Cytochrome P450 1A2, the half-maximal activity concentration (AC50) is 31.6 µM (inconclusive).

For `Cc1ccc(-c2nnc(Nc3ccc(O)cc3)c3ccccc23)cc1S(=O)(=O)NCCO`, the IC50 at Large T antigen is 13.2 µM (active).

As to `CCCCSc1nnc(-c2ccccc2)c2ccccc12`, in [3], the IC50 is listed as 9.31 µM (not active).

As for `CCOc1ccc(N2C(=O)/C(=C/c3ccccc3)N=C2SC)cc1`, the 50% effective concentration (EC50) in assay [4] is 0.135 µM (active); in the assay with H4, 108 µM (active).

Consider `Cc1nn(-c2cccc(Cl)c2)c2c1C(c1cccnc1)C(C#N)=C(N)O2` (stereo unspecified), for which, in [5], the half-maximal activity concentration (AC50) was 16.7 µM (active). Moreover, at Protein RecA, the EC50 was 5.05 µM (active).
